Assay results as given in patent US20070232492A1, “Herbicidal Composition” (Ishihara Sangyo Kaisha, LTD., priority 2004, published 2007).

How the values were obtained:
[1] = test system: Japanese bulrush (Scirpus juncoides); experiment: Growth inhibition of Japanese bulrush in paddy soil pots, application under submerged condition, visual rating and Colby expected value; assay type: in vivo
How it was run: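 Scirpus juncoides was sown in paddy soil pots flooded to 3.5 cm and treated under submerged conditions at the 2–3 leaf stage with water-diluted formulations, alone or in combination. Growth inhibition was rated visually 10 or 19 days after application (0% untreated to 100% complete kill). Expected combination values come from Colby's formula.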

[2] = test system: flatsedge (Cyperus serotinus); experiment: Growth inhibition of flatsedge (planted tubers) in paddy soil pots, application under submerged condition, visual rating and Colby expected value; assay type: in vivo
How it was run: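 Tubers grown in flooded paddy soil (3.5 cm water); compounds, alone or mixed, diluted in water and applied submerged at about 2.5-4 leaf stage. Growth inhibition rated visually 21-30 days later (0% untreated to 100% kill); expected mixture values by Colby equation.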

[3] = Schoenoplectiella juncoides, soil, 696 h, read-out: Growth inhibition rate (%) Observed

## COCC(=O)OC(c1ncccc1S(=O)(=O)NC(=O)Nc1nc(OC)cc(OC)n1)C(C)F (centres unmarked) [Compound A2, flucetosulfuron]
[1]; 0.025 g/a, 2 leaf stage, 19 days after application, Test Example 33
  Growth inhibition rate (%) Observed: 43%
[1]; 0.025 g/a, 2.3 to 2.6 leaf stage, 10 days after application
  Growth inhibition rate (%) Observed: 27%
[1]; 0.05 g/a, 2 leaf stage, 19 days after application, Test Example 33
  Growth inhibition rate (%) Observed: 70%
[1]; 0.05 g/a, 2.3 to 2.6 leaf stage, 10 days after application
  Growth inhibition rate (%) Observed: 40%
[1]; 0.075 g/a, 2.6 to 3.1 leaf stage, 22 days after application, Test Examples 50, 58
  Growth inhibition rate (%) Observed: 94%
[1]; 0.1 g/a, 2.3 to 2.6 leaf stage, 10 days after application
  Growth inhibition rate (%) Observed: 63%
[1]; 0.125 g/a, 2 leaf stage, 19 days after application, Test Example 34
  Growth inhibition rate (%) Observed: 50%
[1]; 0.15 g/a, 2.6 to 3.1 leaf stage, 22 days after application, Test Examples 50, 58
  Growth inhibition rate (%) Observed: 93%
[1]; 0.167 g/a, 2 leaf stage, 19 days after application, Test Example 34
  Growth inhibition rate (%) Observed: 79%
[1]; 0.22 g/a, 2.2 to 2.8 leaf stage, 29 days after application, Test Example 44
  Growth inhibition rate (%) Observed: 87%
[1]; 1.5 g/a, 2 leaf stage, 19 days after application, Test Example 34
  Growth inhibition rate (%) Observed: 87%
[1]; 8.3 g/ha, 3 leaf stage, 19 days after application, Test Example 37
  Growth inhibition rate (%) Observed: 70%
[2]; 0.0275 g/a, 2.8 to 3.2 leaf stage, 29 days after application
  Growth inhibition rate (%) Observed: 0%
[2]; 0.15 g/a, 2.5 to 3.0 leaf stage, 30 days after application, Test Examples 46-60
  Growth inhibition rate (%) Observed: 40%
[2]; 0.2 g/a, 4 leaf stage, 21 days after application
  Growth inhibition rate (%) Observed: 20%
[2]; 0.4 g/a, 4 leaf stage, 21 days after application
  Growth inhibition rate (%) Observed: 50%

## CCS(=O)(=O)Oc1ccc2c(c1)C(C)(C)CO2 [Compound (B8.1), benfuresate]
[1]; [3]
  inhibition at 600 g/ha: 90%
  inhibition at 900 g/ha: 89%
  inhibition at 1200 g/ha: 89%
[2]; Cyperus serotinus, soil, 720 h, read-out: Growth inhibition rate (%) Observed
  inhibition at 600 g/ha: 93%

## CCCOCCN(C(=O)CCl)c1c(CC)cccc1CC [Compound (B3.1), pretilachlor]
[1]; Schoenoplectiella juncoides, soil, 240 h, 0.5 g/a, 2.3 to 2.6 leaf stage, 10 days after application, read-out: Growth inhibition rate (%) Observed
  inhibition at 50 g/ha: 3%
[1]; Schoenoplectiella juncoides, soil, 240 h, 1 g/a, 2.3 to 2.6 leaf stage, 10 days after application, read-out: Growth inhibition rate (%) Observed
  inhibition at 100 g/ha: 10%
[2]; Cyperus serotinus, soil, 720 h, 4 g/a, 2.5 to 3.0 leaf stage, 30 days after application, Test Examples 46-60, read-out: Growth inhibition rate (%) Observed
  inhibition at 400 g/ha: 20%
